These results are taken from patent publication US11447500B2, “Thienopyridine derivatives and pharmaceutical composition comprising same” (WELLMARKER BIO CO., LTD., priority 2018, dated 2022).

Where a name gives a salt, the structure may show the parent alone.

T1 sequence (Q04912 25-1400): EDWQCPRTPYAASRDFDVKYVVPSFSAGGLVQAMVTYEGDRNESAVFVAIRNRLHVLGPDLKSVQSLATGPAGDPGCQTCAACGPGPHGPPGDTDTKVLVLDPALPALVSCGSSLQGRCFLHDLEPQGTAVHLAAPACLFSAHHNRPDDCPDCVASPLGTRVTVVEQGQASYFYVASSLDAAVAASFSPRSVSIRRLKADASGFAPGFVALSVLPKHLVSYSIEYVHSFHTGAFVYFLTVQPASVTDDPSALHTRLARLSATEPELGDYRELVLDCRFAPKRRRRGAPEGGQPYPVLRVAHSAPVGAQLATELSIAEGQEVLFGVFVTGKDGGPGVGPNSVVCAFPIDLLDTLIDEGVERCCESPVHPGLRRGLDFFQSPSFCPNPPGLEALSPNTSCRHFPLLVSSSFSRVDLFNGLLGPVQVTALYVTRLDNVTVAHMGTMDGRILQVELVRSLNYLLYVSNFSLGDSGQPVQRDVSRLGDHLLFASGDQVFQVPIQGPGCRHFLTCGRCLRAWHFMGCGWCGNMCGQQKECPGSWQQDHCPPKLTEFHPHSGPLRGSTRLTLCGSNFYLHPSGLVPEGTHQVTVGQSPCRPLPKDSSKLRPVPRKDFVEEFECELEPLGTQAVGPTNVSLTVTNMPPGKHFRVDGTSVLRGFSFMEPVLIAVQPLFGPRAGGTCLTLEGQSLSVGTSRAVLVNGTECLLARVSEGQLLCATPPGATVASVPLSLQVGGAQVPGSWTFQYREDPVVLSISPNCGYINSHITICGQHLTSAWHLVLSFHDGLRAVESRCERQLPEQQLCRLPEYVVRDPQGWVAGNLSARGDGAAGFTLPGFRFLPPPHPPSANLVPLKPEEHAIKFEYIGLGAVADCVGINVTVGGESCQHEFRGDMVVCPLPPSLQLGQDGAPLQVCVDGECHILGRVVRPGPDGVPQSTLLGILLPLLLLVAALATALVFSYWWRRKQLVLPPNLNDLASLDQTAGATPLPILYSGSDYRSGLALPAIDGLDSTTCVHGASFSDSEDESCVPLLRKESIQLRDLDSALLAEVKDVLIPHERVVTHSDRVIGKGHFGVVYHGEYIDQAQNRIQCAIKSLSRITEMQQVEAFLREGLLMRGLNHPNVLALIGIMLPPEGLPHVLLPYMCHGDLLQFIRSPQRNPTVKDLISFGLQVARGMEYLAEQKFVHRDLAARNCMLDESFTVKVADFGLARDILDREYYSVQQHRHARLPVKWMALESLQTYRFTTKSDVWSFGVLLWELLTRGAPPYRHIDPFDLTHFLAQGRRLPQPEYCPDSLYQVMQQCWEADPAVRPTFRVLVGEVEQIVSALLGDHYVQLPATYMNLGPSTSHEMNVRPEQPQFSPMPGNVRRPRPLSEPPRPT

One assay relates to RON-mutated (Δ160) HT-29 colon cancer cell line. Description: Cell killing efficacy, trypan blue exclusion assay, HT-29. It is filed as cell-based. The note with it: HT29 cell, 1 μM, 48 hours. As to the method:
(§1) Two colon cancer cell lines, RON-activated KM12C (80015, KCLB, MEM+10% FBS) and RON-mutated (Δ160) HT-29 (30038, KCLB, RPMI+10% FBS) were prepared in 6-well plates at 5×10^4 cells/well, respectively. After 24 hours, while freshly changing the medium, the sample compounds were added to the wells at a concentration of 1 μM or 5 μM and the plates were allowed to stand for 48 hours.
(§2) As the sample compounds, the compounds synthesized in the examples of the present invention and the compounds of the comparative examples were used.
(§3) After 48 hours, the cell suspensions were collected and centrifuged (1,500 rpm, 4 min.) to obtain the cells, and live cells and dead cells were quantitated (n=2) through a trypan blue (15250-061, Gibco) exclusion assay. The statistical analysis was performed using Excel™ T-test from Microsoft.
(§4) The cell death rates of the compounds of Examples and Comparative Examples were respectively measured and the results are shown in Table 4 as relative ratios to Comparative Example 1.
On to `CCOc1ccn(-c2ccccc2)c(=O)c1C(=O)Nc1ccc(Oc2ccnc3cc(-c4ccc(CN5CCN(C)CC5)cn4)sc23)c(F)c1.Cl` [Example 34], for which the “Cell death rate (Relative to Comp. Ex. 1)” value is “x 2.12”.

Still in this assay, the particulars now being: HT29 cell, 5 μM, 48 hours.
As to `CCOc1ccn(-c2ccccc2)c(=O)c1C(=O)Nc1ccc(Oc2ccnc3cc(-c4ccc(CN5CCN(C)CC5)cn4)sc23)c(F)c1.Cl` [Example 34], the “Cell death rate (Relative to Comp. Ex. 1)” value is “x 1.66”.

The subject of another assay is RON-activated KM12C colon cancer cell line. The experiment in a line: Cell killing efficacy, trypan blue exclusion assay, KM12C. Format: cell-based. The note with it: 1 μM, 48 hours. As to the method: as §1, §2, §3, §4
As to `CCOc1ccn(-c2ccccc2)c(=O)c1C(=O)Nc1ccc(Oc2ccnc3cc(-c4ccc(CN5CCN(C)CC5)cn4)sc23)c(F)c1.Cl` [Example 34], the “Cell death rate (Relative to Comp. Ex. 1)” value is reported as “x 2.07”.

The same assay, now with this note: 5 μM, 48 hours.
For the molecule `CCOc1ccn(-c2ccccc2)c(=O)c1C(=O)Nc1ccc(Oc2ccnc3cc(-c4ccc(CN5CCN(C)CC5)cn4)sc23)c(F)c1.Cl` [Example 34], the “Cell death rate (Relative to Comp. Ex. 1)” value is given as “x 1.11”.

A further assay addresses T1, RON kinase (Homo sapiens, UniProt Q04912).
T1 construct: purchased Carna Bioscience
Description: RON kinase enzyme inhibitory activity, FRET (TR-FRET) technique. It is filed as biochemical. The note with it: 60 min reaction. As to the method: The enzyme inhibitory activity (IC50) of the thienopyridine derivative was measured using FRET (fluorescence resonance energy transfer) technique. RON kinase (Carna Bioscience) was diluted with a kinase assay buffer (50 mM HEPES pH 7.5, 1 mM EGTA, 10 mM MgCl2, 2 mM DTT, and 0.01% Tween-20) to a concentration of 2× (0.4 nM) the final reaction concentration and the dilution was added to a 384-well plate at 5 μL/well. As sample compounds, the compounds synthesized in the examples of the present invention and the compounds of the comparative examples were used. The sample compounds were respectively dissolved in 100% DMSO to obtain 1 mM stock solutions, which were then subjected to eight 10-fold serial dilutions. The sample compounds were diluted with the kinase assay buffer to a concentration of 4× the final reaction concentration, and the dilutions were added to the 384-well plate at 2.5 μL/well. The plate was incubated at room temperature for 15 minutes. Next, 0.25 M ATP solution (Sigma Aldrich) was diluted with the kinase reaction buffer to a concentration of 4× (60 μM) the final reaction concentration, and a tyrosine peptide substrate (Perkin-Elmer) was diluted therein to a concentration of 4× (400 nM) the final reaction concentration. The dilution was added to the 384-well plate at 2.5 μL/well. Then, the 384-well plate was incubated at room temperature and the reaction was allowed to proceed for 60 minutes. After 60 minutes, EDTA (Sigma Aldrich) was diluted with TR-FRET detection buffer (Perkin-Elmer) to a concentration of 4× (40 mM) the final reaction concentration. A europium-labeled anti-phosphotyrosine antibody (Perkin-Elmer) was diluted in the above EDTA dilution to a concentration of 4× (8 nM) the final reaction concentration to prepare a stop solution of the RON kinase reaction. The stop solution was added to the 384-well plate at 10 μL/well to terminate the reaction, and the plate was incubated at room temperature for 60 minutes. Thereafter, the plate was read on Victor X5 plate reader (Perkin-Elmer). At this time, the excitation wavelength was 340 nm and the emission wavelengths were 620 nm and 665 nm. The IC50 values of the sample compounds were determined using GraphPad Prism™ 5 by expressing the emission energy at 665 nm as a function of the sample compound concentration.
In turn, `COCCNCc1ccc(-c2cc3nccc(Oc4ccc(NC(=O)c5cccn(-c6ccccc6)c5=O)cc4F)c3s2)nc1` [Example 5, N-(3-fluoro-4-{[2-(5-{[(2-methoxyethyl)amino]methyl}pyridin-2-yl)thieno[3,2-b]pyridin-7-yl]oxy}phenyl)-2-oxo-1-phenyl-1,2-dihydropyridine-3-carboxamide Hydrochloride] came in with an IC50 of 1.15 nM.
On the same count and under the same terms, with `CCOc1ccn(-c2ccc(F)cc2)c(=O)c1C(=O)Nc1ccc(Oc2ccnc3cc(-c4ccc(CN(CCOC)C(=O)OC(C)(C)C)cn4)sc23)c(F)c1` [Example 6, t-butyl {[6-(7-{4-[4-ethoxy-1-(4-fluorophenyl)-2-oxo-1,2-dihydropyridine-3-carboxamido]-2-fluorophenoxy}thieno[3,2-b]pyridin-2-yl)pyridin-3-yl]methyl}(2-methoxyethyl)carbamate] the figure was 21.9 nM; with `COCCNCc1ccc(-c2cc3nccc(Oc4ccc(NC(=O)c5c(OC)ccn(-c6ccc(F)cc6)c5=O)c(Cl)c4)c3s2)nc1` [Example 10, N-(2-chlor-4-{[-2-(5-{[(2-methoxyethyl)amino]methyl}pyridin-2-yl)thieno[3,2-b]pyridin-7-yl]oxy}phenyl)-1-(4-fluorophenyl)-4-methoxy-2-oxo-1,2-dihydropyridine-3-carboxamide Hydrochloride], 5.66 nM.
`CCOc1ccn(-c2ccc(C(F)(F)F)cc2)c(=O)c1C(=O)Nc1ccc(Oc2ccnc3cc(-c4ccc(CNCCOC)cn4)sc23)c(F)c1` [Example 12, 4-ethoxy-N-(3-fluoro-4-{[2-(5-{[(2-methoxyethyl)amino]methyl}pyridin-2-yl)thieno[3,2-b]pyridin-7-yl]oxy}phenyl)-2-oxo-1-(4-(trifluoromethyl)phenyl)-1,2-dihydropyridine-3-carboxamide Hydrochloride] gave an IC50 of 2.1 nM.
On the same count and under the same terms, with `COCCNCc1ccc(-c2cc3nccc(Oc4ccc(NC(=O)c5c(OC)ccn(-c6ccc(Cl)cc6)c5=O)cc4F)c3s2)nc1` [Example 13, 1-(4-chlorophenyl)-N-(3-fluoro-4-{[2-(5-{[(2-methoxyethyl)amino]methyl}pyridin-2-yl)thieno[3,2-b]pyridin-7-yl]oxy}phenyl)-4-methoxy-2-oxo-1,2-dihydropyridine-3-carboxamide Hydrochloride] the figure was 1.14 nM; with `CCOc1ccn(-c2ccc(OC)cc2)c(=O)c1C(=O)Nc1ccc(Oc2ccnc3cc(-c4ccc(CNCCOC)cn4)sc23)c(F)c1` [Example 15, 4-ethoxy-N-(3-fluoro-4-{[2-(5-{[(2-methoxyethyl)amino]methyl}pyridin-2-yl)thieno[3,2-b]pyridin-7-yl]oxy}phenyl)-1-(4-methoxyphenyl)-2-oxo-1,2-dihydropyridine-3-carboxamide Hydrochloride], 2.93 nM.
`CCOc1ccn(-c2cccc(OC)c2)c(=O)c1C(=O)Nc1ccc(Oc2ccnc3cc(-c4ccc(CNCCOC)cn4)sc23)c(F)c1` [Example 16, 4-ethoxy-N-(3-fluoro-4-{[2-(5-{[(2-methoxyethyl)amino]methyl}pyridin-2-yl)thieno[3,2-b]pyridin-7-yl]oxy}phenyl)-1-(3-methoxyphenyl)-2-oxo-1,2-dihydropyridine-3-carboxamide Hydrochloride] came in with an IC50 of 3.43 nM.
Same read-out and setting: to `COCCNCc1ccc(-c2cc3nccc(Oc4ccc(NC(=O)c5c(C)cnn(-c6ccc(F)cc6)c5=O)cc4F)c3s2)nc1` [Example 17, N-(3-fluoro-4-{[2-(5-{[(2-methoxyethyl)amino]methyl}pyridin-2-yl)thieno[3,2-b]pyridin-7-yl]oxy}phenyl)-2-(4-fluorophenyl)-5-methyl-3-oxo-2,3-dihydropyridazine-4-carboxamide Hydrochloride] belongs 1.59 nM; to `COCCNCc1ccc(-c2cc3nccc(Oc4ccc(NC(=O)c5ccnn(-c6ccccc6)c5=O)cc4F)c3s2)nc1` [Example 19, N-(3-fluoro-4-{[2-(5-{[(2-methoxyethyl)amino]methyl}pyridin-2-yl)thieno[3,2-b]pyridin-7-yl]oxy}phenyl)-3-oxo-2-phenyl-2,3-dihydropyridazine-4-carboxamide Hydrochloride], 3.66 nM; to `COCCNCc1ccc(-c2cc3nccc(Oc4ccc(NC(=O)c5cc(Br)cn(-c6ccc(F)cc6)c5=O)cc4F)c3s2)nc1` [Example 23, 5-bromo-N-(3-fluoro-4-{[2-(5-1 [(2-methoxyethyl)amino]methyl}pyridin-2-yl)thieno[3,2-b]pyridin-7-yl]oxy}phenyl)-1-(4-fluorophenyl)-2-oxo-1,2-dihydropyridine-3-carboxamide Hydrochloride], 8.05 nM.
The same measure, in the same setting: to `COCCNCc1ccc(-c2cc3nccc(Oc4ccc(NC(=O)c5cc(Cl)cn(-c6ccc(F)cc6)c5=O)cc4F)c3s2)nc1` [Example 24, 5-chloro-N-(3-fluoro-4-{[2-(5-{[(2-methoxyethyl)amino]methyl}pyridin-2-yl)thieno[3,2-b]pyridin-7-yl]oxy}phenyl)-1-(4-fluorophenyl)-2-oxo-1,2-dihydropyridine-3-carboxamide Hydrochloride] belongs 24.2 nM; to `CCOc1ccn(-c2ccc(F)cc2)c(=O)c1C(=O)Nc1ccc(Oc2ccnc3cc(-c4ccc(CNCCOC)cn4)sc23)cc1Cl` [Example 26, N-(2-chloro-4-{[2-(5-{[(2-methoxyethyl)amino]methyl}pyridin-2-yl)thieno[3,2-b]pyridin-7-yl]oxy}phenyl)-4-ethoxy-1-(4-fluorophenyl)-2-oxo-1,2-dihydropyridine-3-carboxamide Hydrochloride], 3.7 nM; to `COCCNCc1ccc(-c2cc3nccc(Oc4ccc(NC(=O)c5cc(C)c(C)n(-c6ccc(F)cc6)c5=O)cc4F)c3s2)nc1` [Example 27, N-(3-fluoro-4-([2-(5-{[(2-methoxyethyl)amino)methyl]pyridin-2-yl}thieno[3,2-b]pyridin-7-yl)oxy]phenyl}-1-(4-fluorophenyl)-5,6-dimethyl-2-oxo-1,2-dihydropyridine-3-carboxamide Hydrochloride], 1.93 nM.
Still for that read-out and setting: to `COCCNCc1ccc(-c2cc3nccc(Oc4ccc(NC(=O)c5cc(C)cn(-c6ccc(F)cc6)c5=O)cc4F)c3s2)nc1` [Example 29, N-(3-fluoro-4-{[-2-(5-{[(2-methoxyethyl)amino]methyl}pyridin-2-yl)thieno[3,2-b]pyridin-7-yl]oxy}phenyl)-1-(4-fluorophenyl)-5-methyl-2-oxo-1,2-dihydropyridine-3-carboxamide Hydrochloride] belongs 1.21 nM; to `CCOc1ccn(-c2ccc(Cl)cc2)c(=O)c1C(=O)Nc1ccc(Oc2ccnc3cc(-c4ccc(CN5CCOCC5)cn4)sc23)c(F)c1` [Example 35, 1-(4-chlorophenyl)-4-ethoxy-N-[3-fluoro-4-({2-[5-(morpholinomethyl)pyridin-2-yl]thieno[3,2-b]pyridin-7-yl}oxy)phenyl]-2-oxo-1,2-dihydropyridine-3-carboxamide Hydrochloride], 2.55 nM.
Regarding `CCOc1ccn(-c2ccc(F)cc2)c(=O)c1C(=O)Nc1ccc(Oc2ccnc3cc(-c4ccc(CN5CCOCC5)cn4)sc23)c(Cl)c1` [Example 36, N-[3-chloro-4-({2-[5-(morpholinomethyl)pyridin-2-yl]thieno[3,2-b]pyridin-7-yl}oxy)phenyl]-4-ethoxy-1-(4-fluorophenyl)-2-oxo-1,2-dihydropyridine-3-carboxamide Hydrochloride], the half-inhibitory concentration (IC50) is 2.28 nM.
